Laboratory results taken from ChEMBL document CHEMBL1275471, “ISEcp1-mediated transposition of qnrB-like gene in Escherichia coli” (2008).
≈ marks a conversion by molar mass, not a printed value.

Tests used:
Format in all cases: functional
Escherichia coli [1] = assay: Antimicrobial activity against Escherichia coli J53 transconjugate by CLSI method
Escherichia coli [2] = assay: Antimicrobial activity against Escherichia coli R4525 expressing gyrA S83L and D87Y and parC S80I and E84G mutant gene by CLSI method
Escherichia coli [3] = assay: Antimicrobial activity against azide-resistant Escherichia coli J53 by CLSI method

| Structure (SMILES) | MIC (Escherichia coli [1]) [µg/mL] | MIC (Escherichia coli [2]) [µg/mL] | MIC (Escherichia coli [3]) [µg/mL] |
| --- | --- | --- | --- |
| CCN1CCN(c2cc3c(cc2F)c(=O)c(C(=O)O)cn3C2CC2)CC1 [ENROFLOXACIN] | 0.5 (≈ 1.39 µM) | > 32 | 0.01 (≈ 0.0278 µM) |
| CCn1cc(C(=O)O)c(=O)c2ccc(C)nc21 [NALIDIXIC ACID] | 32 (≈ 138 µM) | > 256 | 4 (≈ 17.2 µM) |
| CCn1cc(C(=O)O)c(=O)c2cc(F)c(N3CCNCC3)cc21 [NORFLOXACIN] | 1 (≈ 3.13 µM) | > 256 | 0.12 (≈ 0.376 µM) |
| CC1COc2c(N3CCN(C)CC3)c(F)cc3c(=O)c(C(=O)O)cn1c23 (stereo not drawn) [OFLOXACIN] | – | > 32 | – |
| C[C@@H]1CN(c2c(F)c(N)c3c(=O)c(C(=O)O)cn(C4CC4)c3c2F)C[C@H](C)N1 [SPARFLOXACIN] | 1 (≈ 2.55 µM) | > 32 | 0.01 (≈ 0.0255 µM) |
